Assay results: patent US8476255B2, “Histone deacetylase inhibitors” (Orchid Chemicals & Pharmaceuticals Limited, priority 2007, dated 2013)

Key:
HCT 116 (colon) cells = assay: Anti-cancer screen (MTT), HCT 116; type: cell-based; conditions: Homo sapiens, HCT-116, HCT116, 48 hours, MTT
Method in brief: (§1)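 An MTT readout (absorbance at 570 nm) measured growth after 48 h of treatment at five final concentrations, 0.01–100 μM, each in triplicate. A T0 plate read at the time of dosing served as baseline. Cultures were in DMEM plus 10% FBS and pre-incubated 24 h at 37° C., with SAHA as the reference drug.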

U251 (glioma) cells = assay: Anti-cancer screen (MTT), U251; type: cell-based; conditions: Homo sapiens, U-251, U251, 48 hours, MTT
Method in brief: as §1

recombinant HDAC1 enzyme = recombinant HDAC1 enzyme (Homo sapiens (Human), UniProt Q13547); assay: HDAC1 inhibitory activity (isoform selectivity); type: biochemical; conditions: read-out: HDAC1 inhibition (IC50)
Sequence of recombinant HDAC1 enzyme (Q13547 whole entry, canonical isoform): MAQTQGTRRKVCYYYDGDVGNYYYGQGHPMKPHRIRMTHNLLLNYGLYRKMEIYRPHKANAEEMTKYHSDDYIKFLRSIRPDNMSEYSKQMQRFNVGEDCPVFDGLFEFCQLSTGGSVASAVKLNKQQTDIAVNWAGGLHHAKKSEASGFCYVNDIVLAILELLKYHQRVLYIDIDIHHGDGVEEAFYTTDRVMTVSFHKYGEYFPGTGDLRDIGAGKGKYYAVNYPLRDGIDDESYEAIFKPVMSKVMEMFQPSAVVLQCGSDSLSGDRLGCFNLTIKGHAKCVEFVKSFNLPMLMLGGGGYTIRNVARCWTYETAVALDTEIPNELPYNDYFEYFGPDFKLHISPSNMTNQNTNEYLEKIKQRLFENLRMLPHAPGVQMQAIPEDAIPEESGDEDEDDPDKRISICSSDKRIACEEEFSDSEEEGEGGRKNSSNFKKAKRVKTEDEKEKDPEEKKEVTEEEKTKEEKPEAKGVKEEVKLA
Description: The assay was carried out, as previously described using recombinant HDAC1 enzyme (BIOMOL, USA) and following manufacturer's instructions.

Compound: COc1ccc(/C=C(/C(=O)NCc2ccc(C(=O)Nc3ccccc3N)cc2)c2ccc(F)cc2)cc1OC [Compound 19, N-(2-Aminophenyl)-4-((3-(3,4-dimethoxyphenyl)-2-(4-fluorophenyl)acrylamido)methyl)benzamide]
- GI50 (HCT 116 (colon) cells; read-out: Cell growth inhibition HCT116 (Colon) GI50): 300 nM
- CC50 (HCT 116 (colon) cells; read-out: Cell growth inhibition HCT116 (Colon) LC50): 58000 nM
- IC (TGI) (HCT 116 (colon) cells; read-out: Cell growth inhibition HCT116 (Colon) TGI): 5000 nM
- GI50 (U251 (glioma) cells; read-out: Cell growth inhibition U251 (Glioma) GI50): 300 nM
- LC50 (concentration giving 50% net cell kill relative to the time-zero cell count) (U251 (glioma) cells; read-out: Cell growth inhibition U251 (Glioma) LC50): 4800 nM
- IC (TGI) (U251 (glioma) cells; read-out: Cell growth inhibition U251 (Glioma) TGI): 1800 nM
- IC50 (recombinant HDAC1 enzyme): 42 nM
